{"source": "patent US12644117B2", "about": "“Method of enabling pooled-library based nucleic acid constructs screening” (priority 2019, dated 2026)", "system": "recombinant ACMNPV baculovirus", "assay": "Baculovirus spreading in Sf9 insect cells infected with YFP-expressing recombinant baculovirus, read by fluorescence microscopy", "type": "cell-based, Spodoptera Frugiperda", "method": "A recombinant ACMNPV baculovirus was generated by homologous recombination and expressed a target fluorescent protein. The fluorescent protein was the Yellow Fluorescent Protein (YFP) from the organism Aequorea Victoria. • Three hours before infection 0.5 million Sf9 insect cells (ThermoFisher) were seeded into two wells of a 6 well-plate (ThermoFisher). Sf9 cells are cultivated in sf900 II media (ThermoFisher). • The initial viral stock titer was estimated to be approximately 1 million baculoviruses per milliliter. The recombinant baculovirus was added to the cells to reach a MOI of approximately 0.02. The added virus volume per well was 10 micolitre. The virus was resuspended in sf900 II media (ThermoFisher). • Cells were incubated in a 27° C. incubator. Four hours after infection, attached cells are washed with PBS to remove baculoviruses which have not penetrated into cells. The wash consisted of three times with 1 ml per cell of PBS media. • Chloroquine diphosphate salt (CC6628 from Sigma) was added to a final concentration of 0.8 mM. In the control condition insect cell media without chloroquine was added to the cells. Cells were incubated in a 27° C. incubator.\nFluorescence microscopy was performed 2 days after infection (FIG. 2A).\nIn the presence of chloroquine, the proportion of fluorescent cells is constant despite an increase of fluorescence intensity by cell (FIG. 2B), indicating accumulation of expressed YFP protein and virus without increasing the number of infected cells. […] In addition the virus produced high quality protein correctly folded within the individual cells.", "key": {"[1]": {"details": "MOI approximately 0.02, chloroquine 0.8 mM, five days after infection (FIG. 2B)"}}}
{"compound": "CCN(CC)CCCC(C)Nc1ccnc2cc(Cl)ccc12", "note": "(stereo not drawn) [chloroquine, Chloroquine]", "values": [{"measurement": "proportion of fluorescent cells", "setting": "MOI approximately 0.02, chloroquine 0.8 mM added four hours after infection, 2 days after infection (FIG. 2A)", "value": "around 1%"}, {"measurement": "fluorescence intensity by cell (accumulation of expressed YFP protein)", "setting": "[1]", "value": "increase"}, {"measurement": "proportion of fluorescent cells", "setting": "[1]", "value": "constant"}]}
